Assay results: patent US8247211B2, “Glycopeptide antibiotics” (American Cyanamid Company, priority 2001, dated 2012)
Values after ≈ are worked out from the molar mass of the structure shown.

Columns and labels:
Test in all cases: In vitro antibacterial evaluation: minimum inhibitory concentration (MIC), broth dilution method
Type in all cases: cell-based
Enterococcus sp. = settings: broth dilution, 18 hours at 35° C.
Method in brief: (§1)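 Broth dilution per NCCLS M7-A2 in Muller-Hinton II […], inoculum 5×10^5 CFU/mL, antibiotic tested over 64-0.06 μg/mL. MIC is taken as the lowest concentration that inhibits growth. Panel includes recent clinical isolates resistant to methicillin, penicillin and/or vancomycin.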

Staphylococcus sp. = settings: strain SMITH GC 4543; broth dilution, 18 hours at 35° C.
Method in brief: as §1

Streptococcus sp. = settings: broth dilution, 18 hours at 35° C.
Method in brief: as §1

Escherichia coli = settings: broth dilution, 18 hours at 35° C.

CC(=O)Nc1cc(CC2NC(=O)C(C(C)c3ccccc3)NC(=O)CNC(=O)C(CO)NC(=O)C(C(O)C3CNC(=N)N3C3OC(CO)C(O)C(O)C3O)NC(=O)C(C(O)C3CNC(=N)N3)NC2=O)ccc1O (stereo not drawn) [Example 13, Cyclo[glycyl-β-methylphenylalanyl-3-acetamidotyrosyl-3-(2-iminoimidazolidin-4-yl)seryl-3-(3-hexopyranosyl-2-iminoimidazolidin-4-yl)serylseryl]]
MIC Enterococcus avium (GC 4558) (Enterococcus sp.; Enterococcus avium (GC 4558)): 64 µg/mL (≈ 62.3 µM) | MIC Enterococcus faecalis (ATCC 29212) (Enterococcus sp.; Enterococcus faecalis (ATCC 29212)): >64 µg/mL | MIC Enterococcus faecalis (GC 2242) (Enterococcus sp.; Enterococcus faecalis (GC 2242)): 64 µg/mL (≈ 62.3 µM) | MIC Enterococcus faecalis (GC 2691) (Enterococcus sp.; Enterococcus faecalis (GC 2691)): >64 µg/mL | MIC Enterococcus faecalis (GC 3059) (Enterococcus sp.; Enterococcus faecalis (GC 3059)): >64 µg/mL | MIC Enterococcus faecalis (GC 4552) (Enterococcus sp.; Enterococcus faecalis (GC 4552)): >64 µg/mL | MIC Enterococcus faecalis (GC 4553) (Enterococcus sp.; Enterococcus faecalis (GC 4553)): 64 µg/mL (≈ 62.3 µM) | MIC Enterococcus faecalis (GC 4554) (Enterococcus sp.; Enterococcus faecalis (GC 4554)): >64 µg/mL | MIC Enterococcus faecalis (GC 6189) (Enterococcus sp.; Enterococcus faecalis (GC 6189)): >64 µg/mL | MIC Enterococcus faecium (GC 2243) (Enterococcus sp.; Enterococcus faecium (GC 2243)): 64 µg/mL (≈ 62.3 µM) | MIC Enterococcus faecium (GC 4556) (Enterococcus sp.; Enterococcus faecium (GC 4556)): 64 µg/mL (≈ 62.3 µM) | MIC Enterococcus faecium (GC 4557) (Enterococcus sp.; Enterococcus faecium (GC 4557)): 64 µg/mL (≈ 62.3 µM) | MIC Enterococcus avium (GC 4558) (Enterococcus sp.): 64 µg/mL (≈ 62.3 µM) | MIC Enterococcus faecalis (ATCC 29212) (Enterococcus sp.): >64 µg/mL | MIC Enterococcus faecalis (GC 2242) (Enterococcus sp.): 64 µg/mL (≈ 62.3 µM) | MIC Enterococcus faecalis (GC 2691) (Enterococcus sp.): >64 µg/mL | MIC Enterococcus faecalis (GC 3059) (Enterococcus sp.): >64 µg/mL | MIC Enterococcus faecalis (GC 4552) (Enterococcus sp.): >64 µg/mL | MIC Enterococcus faecalis (GC 4553) (Enterococcus sp.): 64 µg/mL (≈ 62.3 µM) | MIC Enterococcus faecalis (GC 4554) (Enterococcus sp.): >64 µg/mL | MIC Enterococcus faecalis (GC 6189) (Enterococcus sp.): >64 µg/mL | MIC Enterococcus faecium (GC 2243) (Enterococcus sp.): 64 µg/mL (≈ 62.3 µM) | MIC Enterococcus faecium (GC 4556) (Enterococcus sp.): 64 µg/mL (≈ 62.3 µM) | MIC Enterococcus faecium (GC 4557) (Enterococcus sp.): 64 µg/mL (≈ 62.3 µM) | MIC Staphylococcus aureus-SMITH (GC 4543) (Staphylococcus sp.): 64 µg/mL (≈ 62.3 µM) | MIC Streptococcus agalactiae (GC 4564) (Streptococcus sp.; Streptococcus agalactiae (GC 4564)): 16 µg/mL (≈ 15.6 µM) | MIC Streptococcus pneumoniae (ATCC 6301) (Streptococcus sp.; Streptococcus pneumoniae (ATCC 6301)): 4 µg/mL (≈ 3.89 µM) | MIC Streptococcus pneumoniae (GC 1894) (Streptococcus sp.; Streptococcus pneumoniae (GC 1894)): 2 µg/mL (≈ 1.95 µM) | MIC Streptococcus pneumoniae (GC 4565) (Streptococcus sp.; Streptococcus pneumoniae (GC 4565)): 4 µg/mL (≈ 3.89 µM) | MIC Streptococcus pyogenes (GC 4563) (Streptococcus sp.; Streptococcus pyogenes (GC 4563)): 8 µg/mL (≈ 7.78 µM) | MIC Streptococcus agalactiae (GC 4564) (Streptococcus sp.): 16 µg/mL (≈ 15.6 µM) | MIC Streptococcus pneumoniae (ATCC 6301) (Streptococcus sp.): 4 µg/mL (≈ 3.89 µM) | MIC Streptococcus pneumoniae (GC 1894) (Streptococcus sp.): 2 µg/mL (≈ 1.95 µM) | MIC Streptococcus pneumoniae (GC 4565) (Streptococcus sp.): 4 µg/mL (≈ 3.89 µM) | MIC Streptococcus pyogenes (GC 4563) (Streptococcus sp.): 8 µg/mL (≈ 7.78 µM) | MIC Escherichia coli (ATCC 25922) (Escherichia coli): >64 µg/mL | MIC Escherichia coli (GC 4559) (Escherichia coli): >64 µg/mL | MIC Escherichia coli (GC 4560) (Escherichia coli): 32 µg/mL (≈ 31.1 µM)
